Read-outs that look alike come from different tables or passages of the source.
Assays:
[1] = Isolation of hyperpolarized pyruvate by D2O precipitation of the catalyst and filtration (Example 8); format: physicochemical; conditions: 20% v/v D2O added, Oasis Prime HLB filter, 1.8 T NMR, procedure about 1.15 to 1.30 minutes
Protocol: The parahydrogen flow rate was established at 90 scc/m and pressurized to 8 bars, the mixing field was 0.4 μT, and the temperature was 0° C.
After the hyperpolarization procedure was completed, the sample was rapidly removed from the 0.40 μT field, depressurized, and 20% in volume (125 μL) of D2O was added to the solution to precipitate the perfluorinated SABRE catalyst.

[2] = Precipitation of HP pyruvate with ethyl acetate and reconstitution in D2O (Example 9); format: physicochemical; conditions: after EtOAc precipitation and reconstitution in water (D2O); 7.5 mM fluorinated catalyst, 50 mM DMSO, 20-30 mM pyruvate, 1.8 T
Protocol: Precipitation and redissolution of HP [1-^13C]pyruvate, which takes place in the same NMR tube where hyperpolarization, was performed (Schmidt et al., ACS Sensors, 7(11), 3430-3439 (2022)). The SABRE samples were prepared in CD3OD, using between 20 and 30 mM sodium [1-^13C]pyruvate, 7.5 mM fluorinated SABRE catalyst, and 50 mM dimethyl sulfoxide (DMSO), as described in Examples 6 and 7. 100 μL of this solution was transferred into 5 mm NMR tube and exposed to the SABRE-SHEATH hyperpolarization conditions with the same set-up and optimum conditions described in Examples 6 and 7. The solution was located inside a 3-layer mu-metal of 3″ I.D. and 9″ depth to shield external magnetic fields, combined with a custom-made solenoid to generate a static magnetic field B0 of 0.4 μT. The NMR tubes were pressurized (110 psi, i.e., approximately 8 bar total pressure) with p-H2 bubbling through the solution at a flow of 90 scc/m to activate the catalyst and to ^13C-hyperpolarize the sodium [1-^13C]pyruvate solution. Activation of the catalyst took place for 15 min at ambient temperature and magnetic field. For polarization build-up, the sample was placed in the static magnetic field (typically about 0.4 μT) and a water bath to regulate the reaction temperature at 0° C. After polarization, the NMR tube was rapidly transferred inside the NMR spectrometer at 1.8 T and kept at room temperature. […]

[3] = Relaxation dynamics of hyperpolarized [1-13C]pyruvate in methanol (Example 7); format: physicochemical
Text: (§1) In addition, the relaxation dynamics of the [1-^13C]pyruvate were also studied.
In addition, relaxation dynamics at earth field and 1.8 T are about the same as a non-fluorinated SABRE catalyst T1=28.9±1.6 s and 66.5±7 s, respectively.

[4] = Biphasic extraction of hyperpolarized pyruvate into D2O from NFBME/MeOD (Example 26); format: physicochemical; conditions: after addition of 400 μL D2O to NFBME/MeOD sample (emulsion, bound and free pyruvate), catalyst of Example 4, 1.8 T, room temperature
Protocol: The hyperpolarization procedure of Example 6 was repeated using a mixture of nonafluorobutyl methyl ether (NFBME) and deuterated methanol instead of only deuterated methanol.
After the hyperpolarization procedure was completed, the sample was rapidly removed from the 0.40 μT field and transferred inside the NMR spectrometer at 1.8 T at room temperature. The NMR sample was depressurized and 400 μL of D2O was added to the solution in order to drive the hyperpolarized sodium [1-^13C]pyruvate into the aqueous phase.

[5] = format: physicochemical
Text: Parahydrogen was generated using a Gas-Delivery Manifold. Ultra-high-purity hydrogen gas (Airgas) was fed into a ParaHydrogen flow cryostat (Xeus technology LTD) and enriched to about 50% parahydrogen in the presence of a spin-exchange catalyst (Fe2O3) at liquid nitrogen temperature (77K). […] The entire pH2 line was pressurized to 100 psi.
The magnetic shield condition was as follows. […] The shield was degaussed using internal homebuilt coils driven by a Variac when necessary.
MR experiments were performed using a 1 T Magritek Spinsolve benchtop NMR spectrometer.
FIG. 6 depicts, in the top curve, a single-scan HP ^13C spectrum obtained for the hyperpolarized probe. […] Enhancement is ε˜9000 and polarization is about P(^13C)˜1%.
All experiments were performed with the solution containing fluorinated catalyst, co-ligand (phenyl trifluoromethyl sulfoxide) and [1-^13C]Pyruvate in 0.6 mL CD3OD. The ratio and concentration can be further adjusted to attain better enhancement and polarization. […] The experiments were performed at room temperature, ˜100 scc/m p-H2 flow rate and 96 PSI p-H2 overpressure. The parahydrogen used in this example came from a low-cost 50% p-H2 generator. Each experiment, the p-H2 bubbling was applied for ˜1 min, the sample was quickly transferred to the 1 T NMR spectrometer for detection and the sample was then returned to the mu-metal shield to continue p-H2 bubbling for the next experiment.

[6] = format: physicochemical; conditions: 23 mM sodium [1-13C]pyruvate, 7.4 mM catalyst of Example 4, 46 mM DMSO, 0.2 mL NFBME + 0.2 mL MeOD, 90 scc/m, 110 PSI, 0.4 μT, 0 °C
[7] = Relaxation dynamics of hyperpolarized [1-13C]pyruvate in fluorous mixture (Example 25); format: physicochemical; conditions: fluorous mixture NFBME/MeOD
Text: as §1
In addition, relaxation dynamics at earth field and 1.8 T are about the same as a non-fluorinated SABRE catalyst T1=9.0±1.9 s and 16.0±1.4 s, respectively.

[8] = format: physicochemical; conditions: 20 mM sodium [1-13C]pyruvate, 7.6 mM catalyst shown in Scheme 4, 50 mM DMSO, CD3OD, 0.4 μT, 5 °C, 110 psi, 90 scc/m, 1.8 T
Protocol: (§2) The SABRE samples were prepared in CD3OD, using 20 mM sodium [1-^13C]pyruvate, 7.6 mM perfluorinated SABRE catalyst shown in Scheme 4, and 50 mM dimethyl sulfoxide (DMSO), as described in Examples 6 and 7. The SABRE samples were exposed to the SABRE-SHEATH hyperpolarization conditions with the same set-up and optimum conditions described in Examples 6 and 7. The NMR tubes were pressurized (110 psi, i.e., approximately 8 bar total pressure) with p-H2 bubbling through the solution at a flow of 90 scc/m to activate the catalyst and to ^13C-hyperpolarize the sodium [1-^13C]pyruvate solution. Activation of the catalyst took place for about 15 minutes at ambient temperature and magnetic field. For polarization build-up, the sample was placed in the magnetic field (typically about 0.4 μT) and a water bath at 5° C. to regulate the reaction temperature. The spectrum was acquired immediately following manual sample transfer to a 1.8 T benchtop NMR after 5 seconds, and the results are set forth in the top spectrum of FIG. 17.

[9] = Re-use of the fluorous catalyst mixture for pyruvate hyperpolarization (Example 26); format: physicochemical; conditions: re-used catalyst mixture from 4 days earlier, fresh 23 mM pyruvate and 47 mM DMSO in 0.2 mL CD3OD
[10] = format: physicochemical; conditions: 40 mM sodium [1-13C]pyruvate, 6.6 mM catalyst of Example 16, 50 mM DMSO, CD3OD, 0.4 μT, 5 °C, 110 psi, 90 scc/m, 1.8 T
Protocol: as §2, with “40” for “20”, “6.6” for “7.6”, “of Example 16,” for “shown in Scheme 4,”, “16.” for “17.”

[11] = Example 5 text: 8 mM fluorinated catalyst (Example 4), 16 mM PTFSO, 30 mM [1-13C]pyruvate, 0.6 mL CD3OD, room temperature, ~100 scc/m, 96 PSI, 50% p-H2, 1 T NMR
[12] = FIG. 6 legend: 30 mM sodium [1-13C]pyruvate, 42 mM PTFSO, 7.8 mM Ir-F-IMes, deuterated methanol, 55 s 50% p-H2 bubbling, BT=−0.7 μT, 1 T NMR

13C signal enhancement ε [2]: ~9000 fold | P13C [2]: ~2.17% | T1 ([3]; catalyst of Example 4, 1.8 T): 66.5 ± 7 s | T1 ([3]; catalyst of Example 4, Earth's field): 28.9 ± 1.6 s | T1 ([3]; catalyst of Example 4, relaxation at 0.4 μT): 16.1 ± 0.9 s | 13C signal enhancement ε [4]: ~10800 fold | P13C [4]: ~1.68% | 13C signal enhancement ε [5, 11]: ~9000 | polarization P(13C) [5, 11]: ~1% | 13C signal enhancement ε [5, 12]: ~1250 | polarization P(13C) [5, 12]: ~0.1% | 13C signal enhancement ε [6]: ~38600 fold | P13C [6]: ~6.02% | T1 ([7]; 1.8 T): 16.0 ± 1.4 s | T1 ([7]; relaxation at 0.4 μT): 11.3 ± 1.3 s | 13C signal enhancement ε [8]: ~19000 fold | P13C [8]: ~4.91% | 13C signal enhancement ε [9]: ~3090 fold | P13C [9]: ~0.48% | 13C signal enhancement ε [10]: ~16900 fold | P13C [10]: ~2.17%
Compound: CC(=O)C(=O)O [[1-^13C]pyruvate, Sodium [1-^13C]-pyruvate]
HP 13C signal after catalyst precipitation and filtration [1]: no HP ^13C signal was observed in any sample

— US20250242340A1, “SABRE CATALYSTS CONTAINING FLUORINATED CARBON CHAINS FOR DELIVERY OF METAL-FREE MRI CONTRAST AGENTS” (The United States of America, as represented by the …, priority 2022, published 2025)
